According to US20020137929A1, “1 - (3-heterocyclylphenyl) isothiourea, -isourea, -guanidine and -amidine herbicidal agents” (Intellectual Property Department, BASF Aktiengesellschaft, priority 1998, published 2002):

How the values were obtained:
[1] = test system: ABUTH (Velvetleaf); test: Postemergence herbicidal evaluation; format: in vivo, Abutilon theophrasti; conditions: postemergence
How it was run: (§1)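 First, seedlings were raised for around two weeks. Next, test material in 50/50 acetone/water containing 0.5% TWEEN 20 was sprayed through a nozzle at 40 psi, equivalent to about 0.0156–0.500 kg/ha. Finally, after 4–5 weeks in the greenhouse, plants were rated 0–9.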

[2] = test system: CHEAL (Lambsquarters, Common); test: Postemergence herbicidal evaluation; format: in vivo, Chenopodium album; conditions: postemergence
How it was run: as §1

[3] = test system: SETVI (Foxtail, Green); test: Postemergence herbicidal evaluation; format: in vivo, Setaria viridis; conditions: postemergence
How it was run: as §1

[4] = test system: GLXMAW (Soybean, Williams); test: Postemergence herbicidal evaluation; format: in vivo, Glycine max, (L.) Merr. cv Williams; conditions: postemergence
How it was run: as §1

[5] = test system: ORYSAT (Rice, Tebonnet); test: Postemergence herbicidal evaluation; format: in vivo, Oryza sativa, (L.) Tebonnet; conditions: postemergence
How it was run: as §1

[6] = test system: TRZAWR (Wheat, Winter, cv Riband); test: Postemergence herbicidal evaluation; format: in vivo, Triticum aestivum; conditions: postemergence
How it was run: as §1

[7] = test system: ZEAMX (Corn, Field); test: Postemergence herbicidal evaluation; format: in vivo, Zea mays; conditions: postemergence
How it was run: as §1

[8] = test system: AMBEL (Ragweed, Common); test: Preemergence herbicidal evaluation; format: in vivo, Ambrosia artemisifolia; conditions: rated 4-5 weeks after treatment
How it was run: (§2)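 Seeds were planted in potting soil in cups, then sprayed preemergence with the test compound in aqueous acetone at about 0.0156 to 0.500 kg per hectare. Cups were kept under greenhouse conditions and visually rated 4–5 weeks after treatment on a 0–9 scale against an untreated control.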

[9] = test system: GALAP (Galium); test: Preemergence herbicidal evaluation; format: in vivo, Galium aparine; conditions: rated 4-5 weeks after treatment
How it was run: as §2

[10] = test system: SETVI (Foxtail, Green); test: Preemergence herbicidal evaluation; format: in vivo, Setaria viridis; conditions: rated 4-5 weeks after treatment
How it was run: as §2

[11] = test system: CYPIR (Rice Flatsedge); test: Preemergence weed control under flooded paddy conditions; format: in vivo, Cyperus iria; conditions: rated 3-4 weeks after treatment
How it was run: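 Seeds or propagules sown in top 0.5 cm of silt loam soil, flooded 1.5 to 3 cm above surface throughout. Compound in 50/50 v/v aqueous/acetone pipetted into flood water at about 0.0313 to 0.500 kg/ha. Visual 0-9 rating versus control after three to four weeks in greenhouse.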

[12] = rate 0.0313 kg/ha, rating scale 0-9
[13] = rate 0.0625 kg/ha, rating scale 0-9
[14] = rate 0.1250 kg/ha, rating scale 0-9
[15] = rate 0.2500 kg/ha, rating scale 0-9

CCOC(=O)CN1C(=O)C(COC)SC1=Nc1cc(-n2c(=O)cc(C(F)(F)F)n(C)c2=O)c(F)cc1Cl (stereo not shown) [Compound 156, Ethyl 2-{{2-chloro-5-[3,6-dihydro-3-methyl-2,6-dioxo-4-(trifluoromethyl)-1(2H)-pyrimidinyl]-4-fluorophenyl}imino}-5-(methoxymethyl)-4-oxo-3-thiazolidine-acetate]
9.0: Herbicidal rating ABUTH ([1]; rate 0.0156 kg/ha) | Herbicidal rating ABUTH ([1]; rate 0.0313 kg/ha) | Herbicidal rating ABUTH ([1]; rate 0.0625 kg/ha) | Herbicidal rating CHEAL ([2]; rate 0.0156 kg/ha) | Herbicidal rating CHEAL ([2]; rate 0.0313 kg/ha) | Herbicidal rating CHEAL ([2]; rate 0.0625 kg/ha) | Preemergence herbicidal rating AMBEL [8, 15] | Preemergence herbicidal rating GALAP [9, 15] | Preemergence herbicidal rating SETVI [10, 15]
0.0: Herbicidal rating SETVI ([3]; rate 0.0156 kg/ha) | Herbicidal rating SETVI ([3]; rate 0.0313 kg/ha) | Preemergence herbicidal rating AMBEL [8, 12] | Preemergence herbicidal rating AMBEL [8, 13] | Preemergence herbicidal rating GALAP [9, 12] | Preemergence herbicidal rating SETVI [10, 12] | herbicidal effect rating, CYPIR ([11]; 0.2500 kg/ha)
5.0: Herbicidal rating SETVI ([3]; rate 0.0625 kg/ha) | Preemergence herbicidal rating AMBEL [8, 14]
5.5: Herbicidal rating GLXMAW ([4]; rate 0.0156 kg/ha) | Herbicidal rating GLXMAW ([4]; rate 0.0625 kg/ha)
3.5: Herbicidal rating TRZAWR ([6]; rate 0.0313 kg/ha)
0.5: Herbicidal rating ORYSAT ([5]; rate 0.0156 kg/ha) | Herbicidal rating ORYSAT ([5]; rate 0.0313 kg/ha)
3.0: Herbicidal rating TRZAWR ([6]; rate 0.0156 kg/ha)
2.0: Herbicidal rating ORYSAT ([5]; rate 0.0625 kg/ha) | Preemergence herbicidal rating SETVI [10, 13] | Preemergence herbicidal rating SETVI [10, 14]
4.0: Herbicidal rating GLXMAW ([4]; rate 0.0313 kg/ha) | Herbicidal rating TRZAWR ([6]; rate 0.0625 kg/ha) | Preemergence herbicidal rating GALAP [9, 13] | Preemergence herbicidal rating GALAP [9, 14]
4.5: Herbicidal rating ZEAMX ([7]; rate 0.0156 kg/ha) | Herbicidal rating ZEAMX ([7]; rate 0.0313 kg/ha) | Herbicidal rating ZEAMX ([7]; rate 0.0625 kg/ha)

CC(C)OC(=O)CN1C(=O)CSC1=Nc1cc(-n2c(=O)cc(C(F)(F)F)n(C)c2=O)c(F)cc1Cl [Compound 110]
1.0: Herbicidal rating SETVI ([3]; rate 0.0158 kg/ha) | Preemergence herbicidal rating AMBEL ([8]; rate 0.0156 kg/ha)
4.0: Herbicidal rating TRZAWR ([6]; rate 0.0630 kg/ha) | CYPIR herbicidal effect rating ([11]; 0.0625 kg/ha)
9.0: Herbicidal rating ABUTH ([1]; rate 0.0158 kg/ha) | Herbicidal rating ABUTH ([1]; rate 0.0315 kg/ha) | Herbicidal rating ABUTH ([1]; rate 0.0630 kg/ha) | Herbicidal rating CHEAL ([2]; rate 0.0158 kg/ha) | Herbicidal rating CHEAL ([2]; rate 0.0315 kg/ha) | Herbicidal rating CHEAL ([2]; rate 0.0630 kg/ha) | Herbicidal rating SETVI ([3]; rate 0.0315 kg/ha) | Herbicidal rating SETVI ([3]; rate 0.0630 kg/ha) | Preemergence herbicidal rating AMBEL ([8]; rate 0.5000 kg/ha) | Preemergence herbicidal rating SETVI ([10]; rate 0.2500 kg/ha) | Preemergence herbicidal rating SETVI ([10]; rate 0.5000 kg/ha)
7.0: Herbicidal rating ZEAMX ([7]; rate 0.0630 kg/ha) | CYPIR herbicidal effect rating ([11]; 0.1250 kg/ha)
0.0: Preemergence herbicidal rating GALAP ([9]; rate 0.0156 kg/ha) | Preemergence herbicidal rating GALAP ([9]; rate 0.0313 kg/ha) | Preemergence herbicidal rating GALAP ([9]; rate 0.0625 kg/ha) | Preemergence herbicidal rating GALAP ([9]; rate 0.1250 kg/ha)
2.0: Preemergence herbicidal rating GALAP ([9]; rate 0.2500 kg/ha)
5.0: Herbicidal rating GLXMAW ([4]; rate 0.0158 kg/ha) | Herbicidal rating ZEAMX ([7]; rate 0.0158 kg/ha) | Preemergence herbicidal rating SETVI ([10]; rate 0.0625 kg/ha)
2.5: Herbicidal rating ORYSAT ([5]; rate 0.0158 kg/ha) | Herbicidal rating TRZAWR ([6]; rate 0.0158 kg/ha) | Preemergence herbicidal rating AMBEL ([8]; rate 0.0313 kg/ha) | Preemergence herbicidal rating SETVI ([10]; rate 0.0313 kg/ha)
4.5: Preemergence herbicidal rating AMBEL ([8]; rate 0.1250 kg/ha)
3.0: CYPIR herbicidal effect rating ([11]; 0.0313 kg/ha)
3.5: Herbicidal rating ORYSAT ([5]; rate 0.0315 kg/ha) | Herbicidal rating ORYSAT ([5]; rate 0.0630 kg/ha) | Herbicidal rating TRZAWR ([6]; rate 0.0315 kg/ha) | Preemergence herbicidal rating AMBEL ([8]; rate 0.0625 kg/ha)
6.5: Herbicidal rating GLXMAW ([4]; rate 0.0315 kg/ha) | Herbicidal rating GLXMAW ([4]; rate 0.0630 kg/ha) | Herbicidal rating ZEAMX ([7]; rate 0.0315 kg/ha) | Preemergence herbicidal rating AMBEL ([8]; rate 0.2500 kg/ha)
1.5: Preemergence herbicidal rating SETVI ([10]; rate 0.0156 kg/ha)
8.0: Preemergence herbicidal rating SETVI ([10]; rate 0.1250 kg/ha) | CYPIR herbicidal effect rating ([11]; 0.2500 kg/ha)
